Results: BindingDB's records for doi:10.1021/acs.jmedchem.0c00182 (Inception Therapeutics, 2020)

Assay: Inhibition of eIF4A1 in human HAP1 cells assessed as reduction in cell proliferation incubated for 72 hrs by CellTiter-Glo reagent based assay

COc1cc2c(c(OC)n1)[C@]1(O)[C@H](O)[C@H](CN(C)C)[C@@H](c3ccccc3)[C@]1(c1ccc(C#N)cc1)O2 [Zotatifin] gave an IC50 of 6.3 nM.
